For ten molecules, IC50 results are on record in ChEMBL document CHEMBL1144311, “Synthesis of argentatin A derivatives as growth inhibitors of human cancer cell lines in vitro” (Bioorg Med Chem Lett, 2005).

Where only a bound is given, the exact number is not on record here.

Holding throughout (assay type): functional, cell-based
Test [1] deals with PC-3. Put plainly: Inhibitory concentration towards human prostatic adenocarcinoma cell line (PC-3) was determined.
In the next test the test system is K562. Put plainly: Inhibitory concentration towards chronic myelogenous leukemic cell line (K562) was determined. The note with it: Homo sapiens.
The next test relates to U-251. The test is described as follows: Inhibitory concentration towards human central nervous system glioblastoma cell line (U251) was determined.
For a further test, the system named is HCT-15. Put plainly: Inhibitory concentration towards human colon adenocarcinoma cell line (HCT-15) was determined.
In test [2] the test system is PC-3. Put plainly: Inhibitory concentration against human prostatic adenocarcinoma cell line (PC-3) was determined.

For orientation: IC50 means the point on the concentration scale where inhibition reaches its midpoint. For `CC1(C)C(=O)CC[C@]23C[C@]24CC[C@]2(C)C([C@]5(C)CC[C@H](C(C)(C)O)O5)[C@@H](O)C[C@@]2(C)C4CCC13` (stereo not given in full), the IC50 with PC-3 [1] is 20.2 µM; in the test with K562, 38.6 µM; in the test with U-251 it was 27.3 µM; in the test with HCT-15, 31.7 µM.
The matching figures for `CC(=O)OC1C[C@@]2(C)C3CCC4C(C)(C)C(=O)C=C[C@@]45C[C@@]35CC[C@]2(C)C1[C@]1(C)CC[C@H](C(C)(C)OC(C)=O)O1` (stereo not given in full): 13.9 µM, greater than 100 µM, 58.4 µM and greater than 100 µM.
As for `CC(=O)O[C@H]1C[C@@]2(C)C3CCC4C(C)(C)/C(=N\O)CC[C@@]45C[C@@]35CC[C@]2(C)C1[C@]1(C)CC[C@H](C(C)(C)OC(C)=O)O1` (stereo not given in full), the IC50 in the test with PC-3 [1] amounted to 12.6 µM; with K562, 15.2 µM; with U-251, 21.4 µM; with HCT-15, 28.9 µM.
The matching figures for `CC1(C)C(=O)C=C[C@]23C[C@]24CC[C@]2(C)C([C@]5(C)CC[C@H](C(C)(C)O)O5)[C@@H](O)C[C@@]2(C)C4CCC13` (stereo not given in full): 15.3 µM, 16.8 µM, 18.9 µM and 16.7 µM.
In the case of `CC1(C)C(=O)[C@H](Br)C[C@]23C[C@]24CC[C@]2(C)C([C@]5(C)CC[C@H](C(C)(C)O)O5)[C@@H](O)C[C@@]2(C)C4CCC13` (stereo not given in full), the IC50 with K562 amounted to 4.34 µM; with U-251 it was 13.9 µM; in the test on PC-3 [2], 11.1 µM; in the test on HCT-15, 3.23 µM.
Take `CC1(C)/C(=N/O)C=C[C@]23C[C@]24CC[C@]2(C)C([C@]5(C)CC[C@H](C(C)(C)O)O5)[C@@H](O)C[C@@]2(C)C4CCC13` (stereo not given in full): the IC50 in the test on PC-3 [1] amounted to 46.9 µM; in the test on K562, 44.4 µM; with U-251, 26.8 µM; in the test on HCT-15, 35.8 µM.
`CC1(C)C(O)=C(C=O)C[C@]23C[C@]24CC[C@]2(C)C([C@]5(C)CC[C@H](C(C)(C)O)O5)C(O)C[C@@]2(C)C4CCC13` (stereo not given in full): the IC50 is 5.69 µM in the test on PC-3 [1], 14.4 µM in the test on K562, 5.88 µM in the test with U-251 and 9.82 µM with HCT-15.
Turning to `CC1(C)C(=O)CC[C@]23C[C@]24CC[C@]2(C)C([C@]5(C)CCC(=O)O5)C(=O)C[C@@]2(C)C4CCC13` (stereo not given in full), the IC50 in the test with PC-3 [1], in the test with K562, with U-251 and in the test on HCT-15 was greater than 100 µM in each case.
Turning to `CC1(C)c2oncc2C[C@]23C[C@]24CC[C@]2(C)C([C@]5(C)CC[C@H](C(C)(C)O)O5)[C@@H](O)C[C@@]2(C)C4CCC13` (stereo not given in full), the IC50 with PC-3 [1] came out at 13 µM; in the test on K562, 11 µM; with U-251 it was 11.3 µM; in the test with HCT-15, 10.2 µM.
The matching figures for `CC(=O)O[C@H]1C[C@@]2(C)C3CCC4C(C)(C)C(=O)CC[C@@]45C[C@@]35CC[C@]2(C)C1[C@]1(C)CC[C@H](C(C)(C)OC(C)=O)O1` (stereo not given in full): 22.7 µM, 68.4 µM, 30.5 µM and 40.7 µM.
